In patent US20060166984A1, “Amino substituted benzo(hetero)cyclic derivatives” (priority 2003, published 2006):
Like-named read-outs stand apart in the source and are kept apart here.

Assays:
[1] = system: Cotton Aphid (aphis gossypii); experiment: Cotton Aphid foliar dip test on cotton cotyledons; type: in vivo; conditions: 120 h, counts after 5 days, read-out: mortality in comparison with untreated controls
Excerpt: Cotton Aphid (aphis gossypii)
The active compounds were formulated in 50:50 acetone:water and 100 ppm Kinetic® surfactant (a nonionic wetting agent which is a blend of polyalkyleneoxide modified polydimethylsiloxane and polyoxypropylene-polyoxyethylene copolymers, available from Helena Chemical Company, Memphis, Tenn. 38119, U.S.A.).
Cotton plants at the cotyledon stage (one plant per pot) were infested by placing a heavily infested leaf from the main colony on top of each cotyledon. The aphids were allowed to transfer to the host plant overnight, and the leaf used to transfer the aphids was removed. The cotyledons were dipped in the test solution and allowed to dry. After 5 days, mortality counts were made.

[2] = system: Green Peach Aphid (myzus persicae); experiment: Green Peach Aphid foliar dip test on pepper plants; type: in vivo; conditions: 120 h, read-out: mortality in comparison with untreated controls
Experimental: Green Peach Aphid (myzus persicae)
(§1) The active compounds were formulated in 50:50 acetone:water and 100 ppm Kinetic® surfactant.
Pepper plants in the 2nd leaf-pair stage (variety ‘California Wonder’) were infested with approximately 40 laboratory-reared aphids by placing infested leaf sections on top of the test plants. The leaf sections were removed after 24 hours. The leaves of the intact plants were dipped into gradient solutions of the test compound and allowed to dry. Test plants were maintained under fluorescent light (24 hour photoperiod) at about 25° C. and […] relative humidity. Aphid mortality on the treated plants, relative to mortality on check plants, was determined after 5 days.

[3] = system: Twospotted Spider Mite (Tetranychus urticae); experiment: Twospotted Spider Mite dip test on lima bean plants; type: in vivo; conditions: 120 h, read-out: mortality compared to untreated controls
Experimental: Twospotted Spider Mite (Tetranychus urticae)
Lima bean plants in the 1st leaf-pair stage (variety ‘Henderson’) were infested with approximately 100 laboratory-reared mites per leaf by placing infested leaf sections on top of the test plants. The leaf sections were removed after 24 hours. The foliage of the intact plants was dipped into gradient solutions of the test compounds. Mite mortality was determined after 5 days.

[4] = system: Bean Aphid (Aphis fabae); experiment: Bean Aphid dip test on nasturtium plants; type: in vivo; conditions: 72 h, after 3 days, read-out: mortality compared to untreated controls
Experimental: Nasturtium plants in the 1st leaf-pair stage (variety ‘Mixed Jewle’ were infested with approximately 25 laboratory-reared aphids by placing infested cut plants on top of the test plants. The cut plants were removed after 24 hours. The foliage and stem of the test plants were dipped into gradient solutions of the test compound. Aphid mortality was determined after 3 days.

[5] = system: Silverleaf whitefly (bemisia argentifolii); experiment: Silverleaf whitefly test on dipped cotton cotyledons; type: in vivo; conditions: 72 h, whitefly adults on cotton, 3 days after treatment, read-out: mortality compared to untreated controls
Experimental: Silverleaf whitefly (bemisia argentifolii)
as §1
Selected cotton plants were grown to the cotyledon state (one plant per pot). The cotyledons were dipped into the test solution to provide complete coverage of the foliage and placed in a well-vented area to dry. Each pot with treated seedling was placed in a plastic cup and 10 to 12 whitefly adults (approximately 3-5 day old) were introduced. The cups were covered with a re-usable screened lid (150 micron mesh polyester screen PeCap from Tetko Inc). Test plants were maintained in the holding room at about 25° C. and 20-40% relative humidity for 3 days avoiding direct exposure to the fluorescent light (24 hour photoperiod) to prevent trapping of heat inside the cup.
Mortality was assessed 3 days after treatment of the plants.

[6] = 300 ppm, green peach aphid on pepper, after 5 days
[7] = 300 ppm, spider mite on lima bean, after 5 days

CN1CCN(C2=Cc3ccccc3C2)CC1 gave a melting point of 158 to 160 °C.

CCN1CCN(C2=Cc3ccccc3C2)CC1 gave a melting point of 124 to 126 °C.

CCN1CCN(C2=CCCc3ccccc32)CC1 gave a melting point of 68 to 70 °C.

For CN1CCN([C@@H]2C[C@@H](c3ccc(F)cc3)c3ccc(Cl)cc32)CC1 (relative stereo) [Compound 61, Trans-1-[3-(4-fluorophenyl)-6-chloro-2,3-dihydro-1H-inden-1-yl]4-methylpiperazine], the mortality at 300 ppm [1] was > 85% and the mortality at 300 ppm [2, 6] was > 85%.

For CN1CCN(c2cccc3ccccc23)CC1 [Compound 5, 1-Methyl-4-(1-naphthyl)-piperazine], the mortality at 300 ppm [2] was > 85%.

With CN1CCN(c2nccc3ccccc23)CC1 [Compound 12, 1-(1-Isoquinolinyl)-4-methylpiperazine] the mortality at 300 ppm [3] was > 70%.

For CN1CCN(C2CCc3ccccc3C2)CC1 (stereo not shown) [Compound 14, 1-(1,2,3,4-Tetrahydro-2-naphthalenyl)-4-methylpiperazine], the mortality at 300 ppm [3, 7] was > 70%.

For CN1CCN(C2CCSc3ccc(Cl)cc32)CC1 (stereo not shown) [Compound 16, 1-(6-Chloro-3,4-dihydro-2H-thiochromen-4-yl)-4-methylpiperazine], the mortality at 300 ppm [1] was > 85%, the mortality at 300 ppm [2, 6] was > 85% and the mortality at 300 ppm [4] was > 70%.

In the case of CN1CCN(C2CCCc3ccc(F)cc32)CC1 (stereo not shown) [Compound 20, 1-(7-Fluoro-1,2,3,4-tetrahydro-1-naphthalenyl)-4-methylpiperazine], the mortality at 300 ppm [1] is reported as > 85%, the mortality at 300 ppm [2, 6] is reported as > 85% and the mortality at 300 ppm [5] is reported as > 95%. For the same compound, the mortality at 300 ppm [3, 7] was > 70%.

With CN1CCN(C2=CCCc3ccc(F)cc32)CC1 [Compound 21, 1-(7-Fluoro-3,4-dihydro-1-naphthalenyl)-4-methylpiperazine] the mortality at 300 ppm [3, 7] was > 70%.
